Laboratory results taken from patent US11459315B2, “Modulators of methyl modifying enzymes, compositions and uses thereof” (Constellation Pharmaceuticals, Inc., priority 2017, dated 2022).
Like-named read-outs stand apart in the source and are kept apart here.

Assays:
[1] = test system: H3K27me3 mark in HeLa cells (EZH2); experiment: H3K27me3 Alpha Hela Assay (AlphaLISA); format: cell-based; conditions: HeLa cells, 72 hrs, read-out: EZH2 Cell H3K27me3 Alpha HeLa (EC50 K27me3)
Procedure, shortened: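 HeLa cells (1,000/well) treated with ten 3-fold compound doses for 72 h at 37 °C; lysates extracted and H3K27me3 detected by AlphaLISA with anti-K27me3 acceptor beads, biotinylated anti-H3 (3 nM) and streptavidin donor beads. EC50 from DMSO-normalized dose-response curves; duplicate plate assessed viability.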

PRC2 containing wt EZH2 = PRC2 containing wt EZH2 (Homo sapiens (Human), UniProt Q15910); experiment: EZH2 biochemical assay (IC50), 3H-SAM incorporation into biotinylated H3 peptide; conditions: 30 pM PRC2 containing wt EZH2, 3-5 h pre-incubation
Chain of PRC2 containing wt EZH2 (Q15910 whole entry): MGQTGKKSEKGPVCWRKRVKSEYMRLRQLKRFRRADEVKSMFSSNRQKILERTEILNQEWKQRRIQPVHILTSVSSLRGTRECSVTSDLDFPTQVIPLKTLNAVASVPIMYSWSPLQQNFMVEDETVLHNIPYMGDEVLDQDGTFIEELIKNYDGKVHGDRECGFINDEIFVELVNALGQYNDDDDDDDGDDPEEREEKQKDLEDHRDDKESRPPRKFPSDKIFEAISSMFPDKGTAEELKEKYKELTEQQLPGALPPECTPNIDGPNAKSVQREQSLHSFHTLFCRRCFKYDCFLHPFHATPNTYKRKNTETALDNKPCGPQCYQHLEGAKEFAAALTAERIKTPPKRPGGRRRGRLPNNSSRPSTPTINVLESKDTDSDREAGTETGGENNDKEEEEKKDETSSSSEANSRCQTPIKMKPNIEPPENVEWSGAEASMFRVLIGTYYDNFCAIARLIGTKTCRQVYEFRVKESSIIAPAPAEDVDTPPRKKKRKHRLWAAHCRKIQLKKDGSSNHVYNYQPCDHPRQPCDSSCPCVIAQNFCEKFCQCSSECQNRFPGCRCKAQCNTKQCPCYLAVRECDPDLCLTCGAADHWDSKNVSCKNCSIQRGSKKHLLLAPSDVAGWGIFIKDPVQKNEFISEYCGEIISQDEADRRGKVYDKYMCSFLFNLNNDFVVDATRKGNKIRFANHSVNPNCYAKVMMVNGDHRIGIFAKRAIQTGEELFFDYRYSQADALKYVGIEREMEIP
Chain of PRC2 containing wt EZH2 (O75530 whole entry partner): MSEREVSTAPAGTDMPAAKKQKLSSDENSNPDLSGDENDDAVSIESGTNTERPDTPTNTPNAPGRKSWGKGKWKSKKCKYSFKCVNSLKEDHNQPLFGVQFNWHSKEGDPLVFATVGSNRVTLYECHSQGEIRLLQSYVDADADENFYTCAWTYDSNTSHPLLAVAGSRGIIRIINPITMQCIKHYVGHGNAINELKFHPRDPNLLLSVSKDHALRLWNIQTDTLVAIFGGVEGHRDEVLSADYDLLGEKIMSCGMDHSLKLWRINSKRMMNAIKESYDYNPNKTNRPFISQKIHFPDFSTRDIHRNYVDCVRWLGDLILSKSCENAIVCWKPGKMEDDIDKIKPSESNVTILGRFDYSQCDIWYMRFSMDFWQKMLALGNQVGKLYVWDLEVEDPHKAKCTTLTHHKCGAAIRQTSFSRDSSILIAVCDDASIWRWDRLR
Chain of PRC2 containing wt EZH2 (Q15022 whole entry partner): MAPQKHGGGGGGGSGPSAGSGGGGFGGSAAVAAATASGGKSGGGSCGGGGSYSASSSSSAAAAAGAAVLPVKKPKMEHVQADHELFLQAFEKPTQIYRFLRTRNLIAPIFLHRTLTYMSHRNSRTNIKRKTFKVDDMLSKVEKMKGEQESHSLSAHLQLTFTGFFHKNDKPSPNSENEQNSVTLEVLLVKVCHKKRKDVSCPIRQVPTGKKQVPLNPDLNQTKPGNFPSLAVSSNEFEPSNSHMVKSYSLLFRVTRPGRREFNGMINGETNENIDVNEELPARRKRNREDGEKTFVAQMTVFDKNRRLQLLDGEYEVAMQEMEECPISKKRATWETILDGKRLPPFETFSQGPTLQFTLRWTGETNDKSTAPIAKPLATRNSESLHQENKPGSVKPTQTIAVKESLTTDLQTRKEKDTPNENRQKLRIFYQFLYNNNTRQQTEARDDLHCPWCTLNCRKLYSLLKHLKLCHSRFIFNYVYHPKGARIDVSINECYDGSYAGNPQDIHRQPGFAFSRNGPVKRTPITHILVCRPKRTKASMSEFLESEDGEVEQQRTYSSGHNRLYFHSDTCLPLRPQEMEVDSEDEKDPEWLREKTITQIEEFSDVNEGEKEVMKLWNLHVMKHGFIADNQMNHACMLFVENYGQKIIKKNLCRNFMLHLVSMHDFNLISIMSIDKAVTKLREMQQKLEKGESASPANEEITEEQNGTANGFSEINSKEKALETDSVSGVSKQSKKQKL
Chain of PRC2 containing wt EZH2 (Q09028 whole entry partner): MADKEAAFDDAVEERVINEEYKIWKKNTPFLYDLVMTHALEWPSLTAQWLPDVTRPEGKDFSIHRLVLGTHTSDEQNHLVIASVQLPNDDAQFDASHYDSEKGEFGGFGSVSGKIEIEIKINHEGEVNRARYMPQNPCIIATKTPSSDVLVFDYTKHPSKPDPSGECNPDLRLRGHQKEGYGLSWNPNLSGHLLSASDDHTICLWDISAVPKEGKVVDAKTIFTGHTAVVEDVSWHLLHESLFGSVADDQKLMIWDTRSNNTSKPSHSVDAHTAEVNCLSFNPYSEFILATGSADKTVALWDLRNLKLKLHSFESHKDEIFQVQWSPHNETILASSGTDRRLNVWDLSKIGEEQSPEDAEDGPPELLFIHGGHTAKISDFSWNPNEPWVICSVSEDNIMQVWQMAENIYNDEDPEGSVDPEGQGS
Chain of PRC2 containing wt EZH2 (Q6ZN18 whole entry partner): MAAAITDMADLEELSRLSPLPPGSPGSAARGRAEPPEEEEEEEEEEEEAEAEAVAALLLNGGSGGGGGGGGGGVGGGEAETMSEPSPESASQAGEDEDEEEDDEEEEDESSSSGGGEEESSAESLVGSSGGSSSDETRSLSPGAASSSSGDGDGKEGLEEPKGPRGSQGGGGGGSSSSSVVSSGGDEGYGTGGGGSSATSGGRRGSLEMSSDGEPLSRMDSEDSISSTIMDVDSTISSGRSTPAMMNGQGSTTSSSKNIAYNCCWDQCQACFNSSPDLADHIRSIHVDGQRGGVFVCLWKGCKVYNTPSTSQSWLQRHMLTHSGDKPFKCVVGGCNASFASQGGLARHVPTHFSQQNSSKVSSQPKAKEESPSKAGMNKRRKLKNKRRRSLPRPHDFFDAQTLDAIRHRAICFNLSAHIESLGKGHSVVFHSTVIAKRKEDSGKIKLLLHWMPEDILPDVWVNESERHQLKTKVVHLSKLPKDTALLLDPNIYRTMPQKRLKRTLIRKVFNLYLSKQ
Procedure, shortened: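 The PRC2 pentamer with wt EZH2 (30 pM) was pre-incubated for 3-5 h with 450 nM SAM plus 450 nM ³H-SAM, 2 µM H3K27me3 activating peptide and compound (0.8% DMSO) in Tris at pH 8.5. Biotinylated H3K27me1 peptide was added and the reaction ran 18-22 h at RT. Incorporated ³H was captured on streptavidin plates, and IC50 was taken from a four-parameter fit.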

SMILES	EC50 [1] [nM]	IC50 (PRC2 containing wt EZH2; read-out: EZH2 (IC50)) [nM]	EC50 ([1]; Homo sapiens, HeLa, 72 h) [nM]	IC50 (PRC2 containing wt EZH2; EZH2 (IC50)) [nM]
CSc1cc(C)[nH]c(=O)c1CNC(=O)c1c(C)n([C@H](C)C2CCC(OC(=O)C(C)C)CC2)c2ccccc12 (single isomer, unassigned) [144 (isomer 2)]	< 10	< 0.5		
CSc1cc(C)[nH]c(=O)c1CNC(=O)c1c(C)n([C@H](C)C2CCC(OC3CN(C)C3)CC2)c2ncccc12 (single isomer, unassigned) [145 (isomer 1)]			> 100	0.5 to 5
CSc1cc(C)[nH]c(=O)c1CNC(=O)c1c(C)n([C@H](C)C2CCC(OC3CN(C)C3)CC2)c2ncccc12 (single isomer, unassigned) [145 (isomer 2)]	> 100			< 0.5
CSc1cc(C)[nH]c(=O)c1CNC(=O)c1c(C)n([C@H](C)C2CCC(Oc3cnn(C)c3)CC2)c2ncccc12 (single isomer, unassigned) [147 (isomer 1)]		< 0.5	< 10	
CSc1cc(C)[nH]c(=O)c1CNC(=O)c1c(C)n([C@H](C)C2CCC(Oc3cnn(C)c3)CC2)c2ncccc12 (single isomer, unassigned) [147 (isomer 2)]	< 10	< 0.5		
CSc1cc(C)[nH]c(=O)c1CNC(=O)c1c(C)n([C@H](C)C2CCC(N3CC(N(C)C)C3)CC2)c2ccccc12 (single isomer, unassigned) [148 (isomer 1)]		< 0.5	10 to 100	
CSc1cc(C)[nH]c(=O)c1CNC(=O)c1c(C)n([C@H](C)C2CCC(N3CC(N(C)C)C3)CC2)c2ccccc12 (single isomer, unassigned) [148 (isomer 2)]	10 to 100	< 0.5		
CSc1cc(C)[nH]c(=O)c1CNC(=O)c1c(C)n([C@H](C)C2CCC(NC3(C)CCOC3)CC2)c2ccccc12 (single isomer, unassigned) [149 (isomer 1)]		< 0.5	10 to 100	
CSc1cc(C)[nH]c(=O)c1CNC(=O)c1c(C)n([C@H](C)C2CCC(NC3(C)CCOC3)CC2)c2ccccc12 (single isomer, unassigned) [149 (isomer 2)]	10 to 100	< 0.5		
CSc1cc(C)[nH]c(=O)c1CNC(=O)c1c(C)n([C@H](C)C2CCC(NC3(CF)COC3)CC2)c2ccccc12 (single isomer, unassigned) [154 (isomer 1)]		< 0.5	10 to 100	
CSc1cc(C)[nH]c(=O)c1CNC(=O)c1c(C)n([C@H](C)C2CCC(NC3(CF)COC3)CC2)c2ccccc12 (single isomer, unassigned) [154 (isomer 2)]	< 10	< 0.5		
CSc1cc(C)[nH]c(=O)c1CNC(=O)c1c(C)n([C@H](C)C2CCC(NC3(CF)COC3)CC2)c2ncccc12 (single isomer, unassigned) [155 (isomer 1)]		< 0.5	< 10	
CSc1cc(C)[nH]c(=O)c1CNC(=O)c1c(C)n([C@H](C)C2CCC(NC3(CF)COC3)CC2)c2ncccc12 (single isomer, unassigned) [155 (isomer 2)]	10 to 100	0.5 to 5		
CSc1cc(C)[nH]c(=O)c1CNC(=O)c1c(C)n([C@H](C)C2CCC(NC3(CF)COC3)CC2)c2ncncc12 (single isomer, unassigned) [156 (isomer 1)]		< 0.5	< 10	
CSc1cc(C)[nH]c(=O)c1CNC(=O)c1c(C)n([C@H](C)C2CCC(NC3(CF)COC3)CC2)c2ncncc12 (single isomer, unassigned) [156 (isomer 2)]	10 to 100	< 0.5		
CSc1cc(C)[nH]c(=O)c1CNC(=O)c1c(C)n([C@H](C)C2CCC(NC3(CO)COC3)CC2)c2cc(F)ccc12 (single isomer, unassigned) [159 (isomer 1)]		< 0.5	10 to 100	
CSc1cc(C)[nH]c(=O)c1CNC(=O)c1c(C)n([C@H](C)C2CCC(NC3(CO)COC3)CC2)c2cc(F)ccc12 (single isomer, unassigned) [159 (isomer 2)]	10 to 100	< 0.5		
CSc1cc(C)[nH]c(=O)c1CNC(=O)c1c(C)n([C@H](C)C2CCC(N3CC(S(C)(=O)=O)C3)CC2)c2ccccc12 (single isomer, unassigned) [162 (isomer 1)]	10 to 100	< 0.5		

SMILES	EC50 [1] [nM]	IC50 (PRC2 containing wt EZH2; read-out: EZH2 (IC50)) [nM]	EC50 ([1]; Homo sapiens, HeLa, 72 h) [nM]	IC50 (PRC2 containing wt EZH2; EZH2 (IC50)) [nM]
CSc1cc(C)[nH]c(=O)c1CNC(=O)c1c(C)n([C@H](C)C2CCC(N3CC(S(C)(=O)=O)C3)CC2)c2ccccc12 (single isomer, unassigned) [162 (isomer 2)]	> 100	0.5 to 5		
CSc1cc(C)[nH]c(=O)c1CNC(=O)c1c(C)n([C@H](C)C2CCC(NC3(C(F)(F)F)COC3)CC2)c2ncccc12 (single isomer, unassigned) [163 (isomer 1)]		< 0.5	< 10	
CSc1cc(C)[nH]c(=O)c1CNC(=O)c1c(C)n([C@H](C)C2CCC(NC3(C(F)(F)F)COC3)CC2)c2ncccc12 (single isomer, unassigned) [163 (isomer 2)]	10 to 100	0.5 to 5		
CSc1cc(C)[nH]c(=O)c1CNC(=O)c1c(C)n([C@H](C)C2CCC(NC3(C(F)(F)F)COC3)CC2)c2ncncc12 (single isomer, unassigned) [164 (isomer 1)]		< 0.5	< 10	
CSc1cc(C)[nH]c(=O)c1CNC(=O)c1c(C)n([C@H](C)C2CCC(NC3(C(F)(F)F)COC3)CC2)c2ncncc12 (single isomer, unassigned) [164 (isomer 2)]	10 to 100	0.5 to 5		
CSc1cc(C)[nH]c(=O)c1CNC(=O)c1c(C)n([C@H](C)C2CCC(N3CC(OC4CC4)C3)CC2)c2ncccc12 (single isomer, unassigned) [Example 30]		< 0.5	< 10	
CSc1cc(C)[nH]c(=O)c1CNC(=O)c1c(C)n([C@H](C)C2CCC(NC3(C(F)(F)F)COC3)CC2)c2ccccc12 (single isomer, unassigned) [Example 130]		< 0.5	< 10	
CSc1cc(C)[nH]c(=O)c1CNC(=O)c1c(C)n([C@H](C)[C@H]2OC[C@@H](N3CCC34COC4)CO2)c2ccccc12 (single isomer, unassigned; isomer 1) [150 (isomer 1)]	> 100	0.5 to 5		
CSc1cc(C)[nH]c(=O)c1CNC(=O)c1c(C)n([C@@H](C)[C@H]2OC[C@@H](N3CCC34COC4)CO2)c2ccccc12 (single isomer, unassigned; isomer 1) [151 (isomer 1)]	> 100	0.5 to 5		
CSc1cc(C)[nH]c(=O)c1CNC(=O)c1c(C)n([C@H](C)[C@H]2OC[C@H](N3CCC34COC4)CO2)c2ccccc12 (single isomer, unassigned; isomer 2) [150 (isomer 2)]	< 10	< 0.5		
CSc1cc(C)[nH]c(=O)c1CNC(=O)c1c(C)n([C@@H](C)[C@H]2OC[C@H](N3CCC34COC4)CO2)c2ccccc12 (single isomer, unassigned; isomer 2) [151 (isomer 2)]	> 100	> 5		
CSc1cc(C)[nH]c(=O)c1CNC(=O)c1c(C)n([C@H](C)C23CC(NC4COC4)(C2)C3)c2ccccc12 [Example 8, (R)-2-methyl-N-((6-methyl-4-(methylthio)-2-oxo-1,2-dihydropyridin-3-yl)methyl)-1-(1-(3-(oxetan-3-ylamino)bicyclo[1.1.1]pentan-1-yl)ethyl)-1H-indole-3-carboxamide]		< 0.5	< 10	
CSc1cc(C)[nH]c(=O)c1CNC(=O)c1c(C)n([C@H](C)C23CC(N(C)C4COC4)(C2)C3)c2ccccc12 [Example 9, (R)-2-methyl-1-(1-(3-(methyl(oxetan-3-yl)amino)bicyclo[1.1.1]pentan-1-yl)ethyl)-N-((6-methyl-4-(methylthio)-2-oxo-1,2-dihydropyridin-3-yl)methyl)-1H-indole-3-carboxamide]		< 0.5	< 10	
CSc1cc(C)[nH]c(=O)c1CNC(=O)c1c(C)n([C@H](C)C23CC(N(C)CC(F)(F)F)(C2)C3)c2ccccc12 [Example 10, (R)-2-methyl-1-(1-(3-(methyl(2,2,2-trifluoroethyl)amino)bicyclo[1.1.1]pentan-1-yl)ethyl)-N-((6-methyl-4-(methylthio)-2-oxo-1,2-dihydropyridin-3-yl)methyl)-1H-indole-3-carboxamide]		< 0.5	< 10	
CSc1cc(C)[nH]c(=O)c1CNC(=O)c1c(C)n([C@H](C)C2CCN(CC(C)(C)O)CC2)c2ccccc12 [Example 11, (R)-1-(1-(1-(2-hydroxy-2-methylpropyl)piperidin-4-yl)ethyl)-2-methyl-N-((6-methyl-4-(methylthio)-2-oxo-1,2-dihydropyridin-3-yl)methyl)-1H-indole-3-carboxamide]			10 to 100	< 0.5
CSc1cc(C)[nH]c(=O)c1CNC(=O)c1c(C)n([C@H](C)C2CCN(CC(F)(F)F)CC2)c2ccccc12 [Example 12, (R)-2-methyl-N-((6-methyl-4-(methylthio)-2-oxo-1,2-dihydropyridin-3-yl)methyl)-1-(1-(1-(2,2,2-trifluoroethyl)piperidin-4-yl)ethyl)-1H-indole-3-carboxamide]			< 10	< 0.5
CSc1cc(C)[nH]c(=O)c1CNC(=O)c1c(C)n([C@H](C)C2CCOCC2)c2ccccc12 [Example 13, (R)-2-methyl-N-((6-methyl-4-(methylthio)-2-oxo-1,2-dihydropyridin-3-yl)methyl)-1-(1-(tetrahydro-2H-pyran-4-yl)ethyl)-1H-indole-3-carboxamide]			< 10	< 0.5
